Holding throughout (type): in vivo
Experiment [1] relates to green foxtail (Setaria viridis, SETVI). Nature of the experiment: Pre-emerge test, greenhouse herbicide activity screening. The note with it: Setaria viridis, pre-emergence, 336 h, pre-emerge, phytotoxicity rating 0-100 at 14 days after application, read-out: Pre-emerge Herbicidal Activity SETVI; for pest or weed control at 63 g/ha: rate 63 g ai/ha; for pest or weed control at 250 g/ha: rate 250 g ai/ha. The essentials: (§1)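 Plants grown in 10 cm pots of sandy loam mix received acetone-dissolved compounds through a moving flat-fan nozzle. Doses ranged from 15 to 1000 g ai/ha. Pre-emerge pots were seeded one day earlier, post-emerge pots 8–21 days earlier. Fourteen days on, each pot was graded 0–100 for damage.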

The subject of experiment [2] is johnsongrass (Sorghum halepense, SORHA). The experiment is described as above. The note with it: Sorghum halepense, pre-emergence, 336 h, pre-emerge, phytotoxicity rating 0-100 at 14 days after application, read-out: Pre-emerge Herbicidal Activity SORHA. A digest of the protocol:
as §1

The subject of experiment [3] is large crabgrass (Digitaria sanguinalis, DIGSA). Described as above. The note with it: Digitaria sanguinalis, pre-emergence, 336 h, pre-emerge, phytotoxicity rating 0-100 at 14 days after application, read-out: Pre-emerge Herbicidal Activity DIGSA; for pest or weed control at 63 g/ha: rate 63 g ai/ha; for pest or weed control at 250 g/ha: rate 250 g ai/ha. The essentials:
as §1

Experiment [4] has as its system sicklepod (Cassia obtusifolia, CASOB). Described as above. The note with it: Senna obtusifolia, pre-emergence, 336 h, pre-emerge, phytotoxicity rating 0-100 at 14 days after application, read-out: Pre-emerge Herbicidal Activity CASOB; for pest or weed control at 63 g/ha: rate 63 g ai/ha; for pest or weed control at 250 g/ha: rate 250 g ai/ha. The essentials: as §1
Experiment [5] concerns velvetleaf (Abutilon theophrasti, ABUTH). The experiment is described as above. The note with it: Abutilon theophrasti, pre-emergence, 336 h, pre-emerge, phytotoxicity rating 0-100 at 14 days after application, read-out: Pre-emerge Herbicidal Activity ABUTH; for pest or weed control at 63 g/ha: rate 63 g ai/ha; for pest or weed control at 250 g/ha: rate 250 g ai/ha. A digest of the protocol:
as §1

Experiment [6] relates to barnyardgrass (Echinochloa crus-galli, ECHCG). The experiment is described as follows: Post-emerge test, greenhouse herbicide activity screening. The note with it: Echinochloa crus-galli, post-emergence, 336 h, post-emerge, phytotoxicity rating 0-100 at 14 days after application, read-out: Post-emerge Herbicidal Activity ECHCG; for pest or weed control at 63 g/ha: 63 g ai/ha; for pest or weed control at 250 g/ha: 250 g ai/ha. The essentials: as §1

In experiment [7] the test system is green foxtail (Setaria viridis, SETVI). The description is as above. The note with it: Setaria viridis, post-emergence, 336 h, post-emerge, phytotoxicity rating 0-100 at 14 days after application, read-out: Post-emerge Herbicidal Activity SETVI; for pest or weed control at 63 g/ha: 63 g ai/ha; for pest or weed control at 250 g/ha: 250 g ai/ha. The essentials:
as §1

For experiment [8], the system named is ivyleaf morningglory (Ipomoea hederacea, IPOHE). The description is as above. The note with it: Ipomoea, post-emergence, 336 h, post-emerge, phytotoxicity rating 0-100 at 14 days after application, read-out: Post-emerge Herbicidal Activity IPOHE; for pest or weed control at 63 g/ha: 63 g ai/ha; for pest or weed control at 250 g/ha: 250 g ai/ha. A digest of the protocol:
as §1

Experiment [9] deals with lambsquarters (Chenopodium album, CHEAL). Described as above. The note with it: Chenopodium album, post-emergence, 336 h, post-emerge, phytotoxicity rating 0-100 at 14 days after application, read-out: Post-emerge Herbicidal Activity CHEAL; for pest or weed control at 63 g/ha: 63 g ai/ha; for pest or weed control at 250 g/ha: 250 g ai/ha. A digest of the protocol:
as §1

The test system of experiment [10] is large crabgrass (Digitaria sanguinalis, DIGSA). The experiment is described as above. The note with it: Digitaria sanguinalis, post-emergence, 336 h, post-emerge, phytotoxicity rating 0-100 at 14 days after application, read-out: Post-emerge Herbicidal Activity DIGSA; for pest or weed control at 63 g/ha: 63 g ai/ha; for pest or weed control at 250 g/ha: 250 g ai/ha. A digest of the protocol: as §1

Experiment [11] concerns redroot pigweed (Amaranthus retroflexus, AMARE). Described as above. The note with it: Amaranthus retroflexus, post-emergence, 336 h, post-emerge, phytotoxicity rating 0-100 at 14 days after application, read-out: Post-emerge Herbicidal Activity AMARE; for pest or weed control at 63 g/ha: 63 g ai/ha; for pest or weed control at 250 g/ha: 250 g ai/ha. A digest of the protocol: as §1

The test system of experiment [12] is sicklepod (Cassia obtusifolia, CASOB). The description is as above. The note with it: Senna obtusifolia, post-emergence, 336 h, post-emerge, phytotoxicity rating 0-100 at 14 days after application, read-out: Post-emerge Herbicidal Activity CASOB; for pest or weed control at 63 g/ha: 63 g ai/ha; for pest or weed control at 250 g/ha: 250 g ai/ha. The essentials: as §1

Experiment [13] has as its system velvetleaf (Abutilon theophrasti, ABUTH). The experiment is described as above. The note with it: Abutilon theophrasti, post-emergence, 336 h, post-emerge, phytotoxicity rating 0-100 at 14 days after application, read-out: Post-emerge Herbicidal Activity ABUTH; for pest or weed control at 63 g/ha: 63 g ai/ha; for pest or weed control at 250 g/ha: 250 g ai/ha. A digest of the protocol:
as §1

Consider four molecules from patent publication US6355799B1, “Substituted benzene compounds, process for their preparation, and herbicidal and defoliant compositions containing them” (ISK Americas Incorporated, priority 1997, dated 2002).

As to `COc1c(Cl)cc(F)c(-n2nc(C)n(C(F)F)c2=O)c1NC(=O)c1ccc2ccccc2c1` [Compound 6-15], the pest or weed control at 63 g/ha in [1] stood at 95%; in experiment [2] (rate 63 g ai/ha), 50%; in experiment [3], 80%; in experiment [4], 70%; in experiment [5] it was 100%; in [6], 40%. For the same molecule, the pest or weed control at 63 g/ha in experiment [7] was 50%; in experiment [8] it was 100%; in [9] it was 100%; in experiment [10] it was 30%; in [11], 100%; in experiment [12], 100%. For the same molecule, the pest or weed control at 63 g/ha in [13] was 100%. The pest or weed control at 250 g/ha in experiment [1] stood at 100%; in [2] (rate 250 g ai/ha), 100%; in experiment [3], 100%; in experiment [4] it was 80%; in experiment [5] it was 100%; in experiment [6] it was 70%. Moreover, the pest or weed control at 250 g/ha in experiment [7] turned out to be 85%; in experiment [8] it was 100%; in experiment [9], 100%; in [10] it was 60%; in [11] it was 100%; in experiment [12], 100%. Besides, in experiment [13], the pest or weed control at 250 g/ha amounted to 100%.
`Cc1nn(-c2c(Cl)cc(Cl)cc2NC(=O)c2ccc3ccccc3c2)c(=O)n1C(F)F` [Compound 6-16]: the pest or weed control at 63 g/ha in experiment [1] amounted to 60%; in experiment [3], 30%; in [4], 0%; in experiment [5], 10%; in experiment [6] it was 20%; in [7], 30%. The pest or weed control at 63 g/ha in experiment [8] amounted to 100%; in experiment [9], 100%; in [10], 20%; in experiment [11], 100%; in experiment [12], 80%; in experiment [13], 100%. Further, the pest or weed control at 250 g/ha worked out at 90% in experiment [1]; 90% in experiment [3]; 0% in experiment [4]; 20% in experiment [5]; 40% in experiment [6]; 60% in [7]. Also, the pest or weed control at 250 g/ha is 75% in experiment [8]; 100% in experiment [9]; 30% in [10]; 90% in [11]; 60% in experiment [12]; 100% in experiment [13].
Turning to `COc1c(Cl)cc(Cl)c(-n2nc(C)n(C(F)F)c2=O)c1NC(=O)c1ccc2ccccc2c1` [Compound 6-17], the pest or weed control at 63 g/ha came out at 70% in experiment [1]; 30% in experiment [3]; 0% in [4]; 30% in experiment [5]; 0% in experiment [6]; 0% in [7]. In addition, the pest or weed control at 63 g/ha in experiment [8] was 50%; in experiment [9], 90%; in [10], 0%; in experiment [11], 60%; in experiment [12], 50%; in [13], 90%. Besides, the pest or weed control at 250 g/ha was determined as 99% in [1]; 99% in [3]; 20% in experiment [4]; 95% in experiment [5]; 30% in [6]; 30% in [7]. Further, the pest or weed control at 250 g/ha is 70% in experiment [8]; 90% in [9]; 20% in experiment [10]; 70% in experiment [11]; 70% in [12]; 100% in experiment [13].
As for `COc1c(Cl)cc(F)c(-c2nn(C)c(C(F)(F)F)c2Cl)c1NC(=O)c1ccc2ccccc2c1` [Compound 7-14], the pest or weed control at 63 g/ha in experiment [1] was found to be 0%; in experiment [3], 60%; in experiment [4], 10%; in experiment [5], 40%. The pest or weed control at 250 g/ha worked out at 70% in experiment [1]; 70% in [3]; 50% in [4]; 60% in [5]; 10% in experiment [6]; 20% in [7]. The pest or weed control at 250 g/ha came out at 100% in experiment [8]; 90% in experiment [9]; 10% in [10]; 70% in experiment [11]; 60% in experiment [12]; 95% in [13].
